From paper PMC9659204, “Biochemical Characterization of Pyranose Oxidase from Streptomyces canus—Towards a Better Understanding of Pyranose Oxidase Homologues in Bacteria” (International Journal of Molecular Sciences, 2022)

Test system: T1, ScPOx (pyranose oxidase from Streptomyces canus)
T1 construct: synthetic codon-optimised gene in pET-21d+ (NcoI/HindIII), C-terminal His6 tag, E. coli BL21(DE3); 52 kDa monomer, noncovalent FAD
Assay: steady-state kinetics, spectrophotometric
Format: biochemical
Settings: apparent; electron acceptor; 4 M D-xylose as electron donor; 50 mM potassium phosphate pH 6.5; 30 °C
Description: steady-state kinetics, spectrophotometric on ScPOx (pyranose oxidase from Streptomyces canus)

Row | SMILES | Km
1 | O=C1C(Cl)=CC(=Nc2ccc(O)cc2)C=C1Cl [DCIP] | 50 ± 10 µM
2 | O=C1C=CC(=O)C=C1 [p-BQ] | 130 ± 20 µM
